Converted amounts (≈) assume the structure as drawn.
Columns and labels:
[1] = Inhibition of GST-tagged DLK (1 to 520 residues)(unknown origin) using MKK4 as substrate preincubated for 60 mins followed by substrate/ATP addition measured after 30 mins by HTRF assay; set-up: species or system Homo sapiens
[2] = Intrinsic clearance in mouse liver microsomes; assay type: ADME, Microsome; conditions: read-out: CLH
[3] = Intrinsic clearance in human liver microsomes; assay type: ADME, Microsome; conditions: read-out: CLH
[4] = Inhibition of human DLK transfected in HEK293-T-REx cells assessed as decrease in JNK phosphorylation incubated for 5 hrs by HTRF assay; assay type: cell-based
[5] = target: Voltage-gated inwardly rectifying potassium channel KCNH2 (Homo sapiens, UniProt Q12809); test: Inhibition of hERG by patch-clamp method; assay type: toxicity
CYP3A4 = CYP3A4 (Homo sapiens, UniProt P08684); test: Time dependent inhibition of CYP3A4 (unknown origin) at 30 uM incubated for 30 mins relative to control; assay type: ADME; conditions: read-out: TDI
[6] = Kinetic solubility of compound at pH 6.8; assay type: physicochemical; conditions: buffer, read-out: Kinetic_solubility
[7] = Oral bioavailability in mouse at 5 mg/kg; assay type: ADME, organism-based; conditions: in vivo
[8] = Efflux ratio in MDCK-MDR1 cells; assay type: ADME, cell-based, Canis lupus familiaris; conditions: dog
[9] = Half life in mouse at 5 mg/kg, po; assay type: ADME, organism-based; conditions: in vivo
[10] = Ratio of unbound drug concentration in brain to plasma of mouse at 5 mg/kg; assay type: ADME, organism-based; conditions: brain and plasma, read-out: K(p,uu,brain)
[11] = Clearance in mouse at 5 mg/kg, po; assay type: ADME, organism-based; conditions: in vivo
[12] = Apparent permeability across apical to basal side in MDCK-MDR1 cells; assay type: ADME, cell-based, Canis lupus familiaris; conditions: dog
[13] = Energy of neutralization, pKa of compound; assay type: physicochemical
[14] = Intrinsic clearance in dog liver microsomes; assay type: ADME, Canis lupus familiaris, Microsome; conditions: read-out: CLH

Chain of Voltage-gated inwardly rectifying potassium channel KCNH2 (Q12809 whole entry): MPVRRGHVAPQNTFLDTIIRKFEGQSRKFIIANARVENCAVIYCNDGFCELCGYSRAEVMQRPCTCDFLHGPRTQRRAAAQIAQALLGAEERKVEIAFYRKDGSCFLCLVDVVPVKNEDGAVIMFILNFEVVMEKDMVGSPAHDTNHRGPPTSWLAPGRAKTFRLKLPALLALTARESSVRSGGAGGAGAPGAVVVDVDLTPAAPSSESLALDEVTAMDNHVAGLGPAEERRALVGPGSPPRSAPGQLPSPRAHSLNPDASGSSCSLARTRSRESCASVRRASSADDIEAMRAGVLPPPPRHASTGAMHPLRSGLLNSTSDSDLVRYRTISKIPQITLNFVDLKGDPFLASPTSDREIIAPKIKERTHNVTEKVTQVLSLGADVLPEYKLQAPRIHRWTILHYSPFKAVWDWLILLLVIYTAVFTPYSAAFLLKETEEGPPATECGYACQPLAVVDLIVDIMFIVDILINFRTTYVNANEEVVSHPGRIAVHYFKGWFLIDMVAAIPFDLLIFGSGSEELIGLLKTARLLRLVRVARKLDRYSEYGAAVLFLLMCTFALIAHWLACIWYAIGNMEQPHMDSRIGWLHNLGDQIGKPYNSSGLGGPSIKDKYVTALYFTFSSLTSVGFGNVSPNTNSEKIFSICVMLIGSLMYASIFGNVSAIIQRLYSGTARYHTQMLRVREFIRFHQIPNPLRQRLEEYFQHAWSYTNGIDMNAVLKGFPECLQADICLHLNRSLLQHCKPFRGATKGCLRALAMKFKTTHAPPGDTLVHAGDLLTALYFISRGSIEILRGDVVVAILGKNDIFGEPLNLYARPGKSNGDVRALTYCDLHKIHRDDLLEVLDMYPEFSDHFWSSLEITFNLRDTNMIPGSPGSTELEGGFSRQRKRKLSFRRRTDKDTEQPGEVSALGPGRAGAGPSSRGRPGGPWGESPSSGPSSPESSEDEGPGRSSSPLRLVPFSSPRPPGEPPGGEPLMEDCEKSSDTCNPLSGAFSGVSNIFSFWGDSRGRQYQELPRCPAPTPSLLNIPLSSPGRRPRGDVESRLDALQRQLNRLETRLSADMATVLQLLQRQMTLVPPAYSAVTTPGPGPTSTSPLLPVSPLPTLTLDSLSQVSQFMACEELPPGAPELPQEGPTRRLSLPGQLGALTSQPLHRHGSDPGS
Chain of CYP3A4 (P08684 whole entry): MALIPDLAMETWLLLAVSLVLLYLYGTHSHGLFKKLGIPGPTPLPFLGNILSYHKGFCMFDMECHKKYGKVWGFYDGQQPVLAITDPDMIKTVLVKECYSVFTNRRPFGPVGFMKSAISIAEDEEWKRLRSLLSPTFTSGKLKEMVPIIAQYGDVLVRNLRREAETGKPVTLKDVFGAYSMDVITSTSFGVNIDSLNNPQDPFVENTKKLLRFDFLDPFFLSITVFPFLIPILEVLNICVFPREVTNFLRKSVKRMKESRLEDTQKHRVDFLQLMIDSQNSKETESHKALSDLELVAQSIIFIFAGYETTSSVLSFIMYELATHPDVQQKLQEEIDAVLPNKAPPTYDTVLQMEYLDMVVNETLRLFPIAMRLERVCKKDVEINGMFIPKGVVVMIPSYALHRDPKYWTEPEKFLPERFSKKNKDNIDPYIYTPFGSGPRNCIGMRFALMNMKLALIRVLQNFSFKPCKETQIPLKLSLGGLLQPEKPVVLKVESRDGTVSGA

Row | Structure (SMILES) | Ki [1] [nM] | IC50 [4] [nM] | also measured
1 | CCn1nc(-c2cnc(N)c(OC(F)(F)F)c2)c2ccn([C@@H]3CCOC3)c(=O)c21 | 7.7 | 120 | microsomal CLint [2]: 33 µL/min/mg; microsomal CLint [3]: 22 µL/min/mg
2 | CCc1nc(-c2cnc(N)c(OC(F)(F)F)c2)c2ccc([C@H]3COCC4(CC4)N3C)cn12 | 1.2 | 104 | IC50 [5]: 30000 nM; inhibition at 0.5 h, 30 µM (CYP3A4): 67%
3 | CN1CCC(c2ccc3c(-c4cnc(N)c(C(F)(F)F)c4)ncn3c2)CC1 | 1.5 | 128 | solubility kinetic [6]: 80 µM (≈ 30 µg/mL)
4 | CCc1nc(-c2cnc(N)c(C(F)(F)F)c2)c2ccc([C@H]3COCCN3C)cn12 |  |  | bioavailability [7]: 112%; efflux ratio [8]: 1; microsomal CLint [2]: 20 µL/min/mg; microsomal CLint [3]: 18 µL/min/mg; half-life [9]: 36 min; Kp uu [10]: 0.17; CL/F [11]: 68 mL/min/kg; Papp A→B [12]: 16.2 ×10⁻⁶ cm/s; solubility kinetic [6]: 320 µM (≈ 130 µg/mL)
5 | CCn1nc(-c2cnc(N)c(OC(F)(F)F)c2)c2ccn(C3COC3)c(=O)c21 | 10.5 | 440 | microsomal CLint [2]: 24 µL/min/mg; microsomal CLint [3]: 9.2 µL/min/mg; Kp uu [10]: 0.5
6 | CC(C)c1ccc2c(-c3cnc(N)c(C(F)(F)F)c3)ncn2c1 | 9.2 | 490 | solubility kinetic [6]: 10 µM (≈ 3.2 µg/mL)
7 | CCn1nc(-c2cnc(N)c(OC(F)(F)F)c2)c2ccn([C@@H](C)C3CC3)c(=O)c21 | 1.5 | 110 | microsomal CLint [2]: 10 µL/min/mg; microsomal CLint [3]: < 4 µL/min/mg; Kp uu [10]: 0.38
8 | CCc1nc(-c2cnc(N)c(C(F)(F)F)c2)c2ccc(C3(F)CCN(C)CC3)cn12 | 0.6 | 40 | pKa [13]: 8.4; IC50 [5]: 600 nM
9 | Nc1ncc(-c2nn(C3CC3)c3c(=O)n(C4CCOCC4)ccc23)cc1OC(F)(F)F | 3.4 | 104 | microsomal CLint [2]: 17 µL/min/mg; microsomal CLint [3]: 13 µL/min/mg; Kp uu [10]: 0.31
10 | Nc1ncc(-c2ncn3cc(C4CCN(C5COC5)CC4)ccc23)cc1C(F)(F)F | 3.2 | 134 | solubility kinetic [6]: 6 µM (≈ 2.5 µg/mL)
11 | CCc1nc(-c2cnc(N)c(OC(F)(F)F)c2)c2cc(C)c([C@H]3COCCN3C)cn12 | 5.3 | 290 | inhibition at 0.5 h, 30 µM (CYP3A4): 70%
12 | CN1CCC(Cc2ccc3c(-c4cnc(N)c(C(F)(F)F)c4)ncn3c2)CC1 | 4.5 | 405 | solubility kinetic [6]: 68 µM (≈ 26.5 µg/mL)
13 | Nc1ncc(-c2n[nH]c3ccsc23)cc1C(F)(F)F | 72.4 |  | 
14 | CN1CCCC[C@H]1c1ccc2c(-c3cnc(N)c(C(F)(F)F)c3)ncn2c1 | 4.3 | 90 | pKa [13]: 8.1; IC50 [5]: 1100 nM; solubility kinetic [6]: 73 µM (≈ 27.4 µg/mL)
15 | CCn1nc(-c2cnc(N)c(OC(F)(F)F)c2)c2ccn([C@@H]3CCOC[C@H]3OC)c(=O)c21 | 1.9 | 85 | microsomal CLint [2]: 24 µL/min/mg; microsomal CLint [3]: 9.3 µL/min/mg; Kp uu [10]: 0.43
16 | Nc1ncc(-c2ncn3ccccc23)cc1C(F)(F)F | 63 |  | 
17 | CCn1nc(-c2cnc(N)c(OC(F)F)c2)c2ccn([C@H]3CCOC[C@H]3OC(F)(F)F)c(=O)c21 | 0.92 | 46 | Kp uu [10]: 0.5
18 | CN1CCC(c2ccc3c(-c4cnc(N)c(C(F)(F)F)c4)nc(C#N)n3c2)CC1 | 4.8 | 162 | 
19 | CCn1nc(-c2cnc(N)c(OC(F)(F)F)c2)c2ccn([C@H]3CCN(C)C[C@H]3OC(F)(F)F)c(=O)c21 | 1.1 | 130 | microsomal CLint [2]: 66 µL/min/mg; microsomal CLint [3]: 41 µL/min/mg; microsomal CLint [14]: 21 µL/min/mg
20 | CCc1nc(-c2cnc(N)c(C(F)(F)F)c2)c2ccc(C3COC3)cn12 | 1 |  | 
21 | CCn1nc(-c2cnc(N)c(OC(F)(F)F)c2)c2ccn([C@@H]3CCCOCC3)c(=O)c21 | 1.3 | 140 | microsomal CLint [2]: 25 µL/min/mg; microsomal CLint [3]: 18 µL/min/mg; Kp uu [10]: 0.29
22 | CCn1nc(-c2cnc(N)c(OC(F)(F)F)c2)c2ccn(C3CCN(C)CC3)c(=O)c21 | 2.5 | 130 | microsomal CLint [2]: 4 µL/min/mg; microsomal CLint [3]: < 3 µL/min/mg; Kp uu [10]: 0.38
23 | CCc1nc(-c2cnc(N)c(C(F)(F)F)c2)c2ccc(CN3CCOCC3)cn12 | 4.6 | 242 | pKa [13]: 6.1; IC50 [5]: 2500 nM
24 | CN1CCC(c2ccc3c(-c4cnc(N)c(C(F)(F)F)c4)nc([C@@H]4CCCO4)n3c2)CC1 | 0.7 | 22 | IC50 [5]: 800 nM
25 | CCn1nc(-c2cnc(N)c(OC(F)(F)F)c2)c2ccc([C@H]3COCCN3C)nc21 | 2.4 | 94 | inhibition at 0.5 h, 30 µM (CYP3A4): 14%
26 | CCc1nc(-c2cnc(N)c(C(F)(F)F)c2)c2ccc(C3CCOCC3)cn12 |  |  | efflux ratio [8]: 0.8; microsomal CLint [2]: 9 µL/min/mg; microsomal CLint [3]: 27 µL/min/mg; Papp A→B [12]: 12.3 ×10⁻⁶ cm/s; solubility kinetic [6]: 1 µM (≈ 0.39 µg/mL)
27 | CCn1nc(-c2cnc(N)c(C(F)(F)F)c2)c2ccn([C@@H]3CCOC[C@@H]3OC3CC3)c(=O)c21 | 1.8 | 180 | Kp uu [10]: 0.24

Row | Structure (SMILES) | Ki [1] [nM] | IC50 [4] [nM] | also measured
28 | Nc1ncc(-c2cn(C3CCC3)c3cccnc23)cc1C(F)(F)F | 194 |  | 
29 | CCn1nc(-c2cnc(N)c(OC(F)(F)F)c2)c2ccn(C3CCN(C4COC4)CC3)c(=O)c21 | 3 | 130 | microsomal CLint [2]: 8.3 µL/min/mg; microsomal CLint [3]: 7.9 µL/min/mg; Kp uu [10]: 0.15
30 | CCc1nc(-c2cnc(N)c(OC(F)(F)F)c2)c2ccc([C@H]3CC(=O)N(C)C3)cn12 | 0.77 | 70 | inhibition at 0.5 h, 30 µM (CYP3A4): 81%
31 | CCn1nc(-c2cnc(N)c(OC(F)(F)F)c2)c2ccc([C@H]3COCCN3C)cc21 | 1.2 | 103 | efflux ratio [8]: 0.4; Kp uu [10]: 0.42; inhibition at 0.5 h, 30 µM (CYP3A4): 15%; Papp A→B [12]: 24.1 ×10⁻⁶ cm/s
32 | CC(C)n1cc(-c2cnc(N)c(C(F)(F)F)c2)c2nc(C3CC3)ccc21 | 27 |  | 
33 | CCn1nc(-c2cnc(N)c(OC(F)(F)F)c2)c2ccn([C@@H]3CCOC[C@@H]3OC)c(=O)c21 | 1.9 | 94 | microsomal CLint [2]: 8.3 µL/min/mg; microsomal CLint [3]: 14 µL/min/mg; Kp uu [10]: 0.41; microsomal CLint [14]: 96 µL/min/mg
34 | CCc1nc(-c2cnc(N)c(OC(F)(F)F)c2)c2ccc(C3(N4CCOCC4)CC3)cn12 | 0.7 | 31 | pKa [13]: 5.1; IC50 [5]: 17000 nM
35 | CCn1nc(-c2cnc(N)c(OC(F)(F)F)c2)c2ccn([C@H]3CCOC[C@H]3OC3CC3)c(=O)c21 | 1.3 | 95 | microsomal CLint [2]: 21 µL/min/mg; microsomal CLint [3]: 12 µL/min/mg; Kp uu [10]: 0.22; microsomal CLint [14]: 21 µL/min/mg
36 | Nc1ncc(-c2c[nH]c3cccnc23)cc1C(F)(F)F | 194 |  | 
37 | CCn1nc(-c2cnc(N)c(OC(F)F)c2)c2ccn([C@H]3CCOC[C@H]3OC3CC3)c(=O)c21 | 0.58 | 32 | Kp uu [10]: 0.15
38 | CCn1nc(-c2cnc(N)c(OC(F)(F)F)c2)c2ccn([C@H]3CC4(CC4)OC[C@H]3OC)c(=O)c21 | 2.2 | 200 | microsomal CLint [2]: 9.7 µL/min/mg; microsomal CLint [3]: 3.2 µL/min/mg; microsomal CLint [14]: 5.4 µL/min/mg
39 | CN1CCC(c2ccc3c(-c4cnc(N)c(C(F)(F)F)c4)nc(C(F)(F)F)n3c2)CC1 | 2.1 | 94 | solubility kinetic [6]: 76 µM (≈ 33.7 µg/mL)
40 | CCc1nc(-c2cnc(N)c(OC(F)(F)F)c2)c2ccc([C@@]3(C)COCCN3C)cn12 | 0.47 | 29 | inhibition at 0.5 h, 30 µM (CYP3A4): 62%
41 | CC(C)c1n[nH]c2cnc(-c3cnc(N)c(C(F)(F)F)c3)cc12 | 79 |  | 
42 | CN1CCOC[C@H]1c1ccc2c(-c3cnc(N)c(OC(F)(F)F)c3)nc(C(F)(F)F)n2c1 | 3.5 | 300 | inhibition at 0.5 h, 30 µM (CYP3A4): 33%
43 | Nc1ncc(-c2cc3cn[nH]c3c(C3CC3)n2)cc1C(F)(F)F | 59 |  | 
44 | CCn1nc(-c2cnc(N)c(OC(F)F)c2)c2ccn([C@H]3CCOC[C@H]3OC3CCC3)c(=O)c21 | 0.65 | 35 | 
45 | Nc1ncc(-c2ccc3ncsc3n2)cc1C(F)(F)F | 416 |  | 
46 | CCc1nc(-c2cnc(N)c(OC(F)(F)F)c2)c2ccn(C3CCOCC3)c(=O)n12 | 2 | 190 | inhibition at 0.5 h, 30 µM (CYP3A4): 87%
47 | CCc1nc(-c2cnc(N)c(OC(F)(F)F)c2)c2ccc(C3CCOCC3)nn12 | 1.6 | 84 | inhibition at 0.5 h, 30 µM (CYP3A4): 78%
48 | CCc1nc(-c2cnc(N)c(OC(F)(F)F)c2)c2ccc([C@H]3COCC(=O)N3C)cn12 | 0.26 | 33 | inhibition at 0.5 h, 30 µM (CYP3A4): 65%
49 | CO[C@H](C)c1nc(-c2cnc(N)c(C(F)(F)F)c2)c2ccc(C3CCN(C)CC3)cn12 | 1.2 | 54 | IC50 [5]: 1300 nM
50 | Nc1ncc(-c2cc3cn[nH]c3cn2)cc1C(F)(F)F | 421 |  | 
51 | CCc1nc(-c2cnc(N)c(OC(F)(F)F)c2)c2cc(Cl)c([C@H]3COCCN3C)cn12 | 7.1 | 450 | inhibition at 0.5 h, 30 µM (CYP3A4): 67%
52 | Nc1ncc(-c2n[nH]c3cnccc23)cc1C(F)(F)F | 149 |  | 
53 | CCn1nc(-c2cnc(N)c(OC(F)(F)F)c2)c2ccn(C3CCOCC3)c(=O)c21 | 2.8 | 110 | efflux ratio [8]: 1; microsomal CLint [2]: 16 µL/min/mg; microsomal CLint [3]: 8.8 µL/min/mg; Kp uu [10]: 0.43; inhibition at 0.5 h, 30 µM (CYP3A4): 18%; Papp A→B [12]: 7.6 ×10⁻⁶ cm/s
54 | CCc1nc(-c2cnc(N)c(C(F)(F)F)c2)c2ccc([C@H]3CN(C)CCO3)cn12 | 2.5 | 100 | pKa [13]: 6.8; IC50 [5]: 6900 nM
